Key:
Aspergillus niger [1] = experiment: Antimicrobial properties of VOM (Wasaouro vapor) alone in MRE package, growth/no growth; format: cell-based; conditions: AIT by gas chromatography at time zero, 25° C., seven days
Procedure: (§1) Similarly, the antimicrobial properties of VOM (without vanillin) were evaluated against the four organisms shown in Table I. In order to evaluate the antimicrobial properties of VOM against each of these foregoing organisms, the modeling system employed several MRE packages. Each MRE package contained two Petri dishes. One Petri dish, 100 mm×15 mm, contained a medium and a selected organism. […] The cellulose filter pad for each 60 mm×15 mm Petri dish received a measured quantity of Wasaouro®. A stock solution of Wasaouro® powder was made and volumes of 100, 200, 400, 600, 800 and 1000 μl were added respectively to the filter pads of the 60 mm×15 mm Petri dishes for each group. […] The amount of the volatile active component of Wasaouro®, allyl isothiocyanate, was determined using gas chromatography. Each Petri dish in the first group was inoculated with Penicillium notatum, inoculum 10^5 spores/ml. Each Petri dish in the first group was then uncovered and placed in its own MRE impermeable laminated package. Similarly, each Petri dish in the second group of Petri dishes was inoculated with Rhizopus stolonifer, inoculum 10^5 spores/ml. Each Petri dish in the second group was then uncovered and then placed in its own MRE impermeable laminated package. In a similar manner, each Petri dish in the third group of Petri dishes was inoculated with Aspergillus niger, inoculum 10^5 spores/ml. Each Petri dish in the third group was then uncovered and then placed in its own MRE impermeable laminated package. Similarly, each Petri dish in the fourth group of Petri dishes was inoculated with Saccharomycopsis fibuligera, inoculum 10^5 spores/ml. Each Petri dish in the fourth group was then uncovered and then placed in its own MRE impermeable laminated package. All MRE packages (for all groups of Petri dishes) were then incubated at 25° C. for seven days. The determination of effectiveness of VOM as an antimicrobial agent was based on a growth or no growth basis. Petri dishes with no growth were left out for seven days after removal from the MRE package to ensure that there was no additional growth. For each experiment, a set of control MRE packages were made with the various concentrations of Wasaouro®. These control packages were used to extrapolate the relative amounts of allyl isothiocyanate in the experimental MRE packages at time zero.

Penicillium notatum = experiment: as above; format: cell-based; conditions: AIT by gas chromatography at time zero, 25° C., seven days
Procedure: as §1

Rhizopus stolonifer = experiment: as above; format: cell-based
Procedure: as §1

[2] = tested on: Saccharomycopsis fibuligera; experiment: as above; format: cell-based; conditions: AIT by gas chromatography at time zero, 25° C., seven days
Procedure: as §1

Aspergillus niger [3] = experiment: Combination of vanillin and VOM (AIT) in MRE package, growth grid; format: cell-based; conditions: for growth of Aspergillus niger: Vanillin 0 ppm
Procedure: (§2) Four bread spoilage organisms were used in determining the inhibition properties of vanillin and VOM: (1) Penicillium notatum, (2) Rhizopus stolonifer, (3) Aspergillus niger and (4) Saccharomycopsis fibuligera. For purposes of this analysis, Wasaouro® was used as the source of VOM. The antimicrobial tests were conducted in MRE air-impermeable laminated packages without bread. Petri dishes containing the appropriate growth medium were inoculated with a selected spoilage organism and then sealed with various concentrations of vanillin and/or Wasaouro®. The vanillin was incorporated directly into the growth medium while the Wasaouro® was kept separate from the organism within the MRE package. […] Wasaouro® was effective at low headspace concentrations (e.g. 17 μg/L (AIT)) with the exception of Rhizopus stolonifer which is resistant to AIT even at much higher concentrations.
Next, both antimicrobial agents were tested against two of the more resistant organisms, Rhizopus stolonifer and Aspergillus niger.

Rhizopusus stolonifer = experiment: as above; format: cell-based, Rhizopus stolonifer; conditions: Vanillin 0 ppm
Procedure: as §2

[4] = tested on: Rhizopusus stolonifer and Aspergillus niger; experiment: Combination of vanillin and VOM (AIT) in MRE package, growth grid, both fungi; format: cell-based, Rhizopus stolonifer and Aspergillus niger; conditions: Vanillin 0 ppm
Procedure: as §2

## C=CCN=C=S [AIT, allyl isothiocyanate]
Aspergillus niger [1]
  Effective Amount Of Allyl Isothiocyanate: ˜17 ppm
Penicillium notatum
  Effective Amount Of Allyl Isothiocyanate: ˜17 ppm
Rhizopus stolonifer; Wasaouro vapor in MRE package, AIT by gas chromatography at time zero, 25° C., seven days
  Effective Amount Of Allyl Isothiocyanate: >470 ppm
Rhizopus stolonifer; even at much higher concentrations than 17 μg/L
  susceptibility of Rhizopus stolonifer to AIT: resistant
[2]
  Effective Amount Of Allyl Isothiocyanate: ˜8 ppm
Aspergillus niger [3]
  sensitivity of Aspergillus niger to AIT: very sensitive
Aspergillus niger [3]; AIT 55 ug/L
  growth of Aspergillus niger: Growth
Aspergillus niger [3]; AIT 145 ug/L
  growth of Aspergillus niger: N/G
Aspergillus niger [3]; AIT 150 ug/L
  growth of Aspergillus niger: Growth
Aspergillus niger [3]; AIT 420 ug/L
  growth of Aspergillus niger: N/G
Aspergillus niger [3]; AIT 465 ug/L
  growth of Aspergillus niger: N/G
Aspergillus niger [3]; AIT 905 ug/L
  growth of Aspergillus niger: N/G
Rhizopusus stolonifer; AIT 55 ug/L
  growth of Rhizopusus stolonifer: Growth
Rhizopusus stolonifer; AIT 145 ug/L
  growth of Rhizopusus stolonifer: Growth
Rhizopusus stolonifer; AIT 150 ug/L
  growth of Rhizopusus stolonifer: Growth
Rhizopusus stolonifer; AIT 420 ug/L
  growth of Rhizopusus stolonifer: Growth
Rhizopusus stolonifer; AIT 465 ug/L
  growth of Rhizopusus stolonifer: Growth
Rhizopusus stolonifer; AIT 905 ug/L
  growth of Rhizopusus stolonifer: Growth
[4]; AIT 55 ug/L
  growth of Rhizopusus stolonifer and Aspergillus niger: Growth
[4]; AIT 145 ug/L
  growth of Rhizopusus stolonifer and Aspergillus niger: Growth
[4]; AIT 150 ug/L
  growth of Rhizopusus stolonifer and Aspergillus niger: Growth
[4]; AIT 420 ug/L
  growth of Rhizopusus stolonifer and Aspergillus niger: Growth
[4]; AIT 465 ug/L
  growth of Rhizopusus stolonifer and Aspergillus niger: Growth
[4]; AIT 905 ug/L
  growth of Rhizopusus stolonifer and Aspergillus niger: Growth

Reference: US20050196492A1, “Food preservative method and system using vanillin and constituent having isothiocynate compound” (priority 2004, published 2005)
